Results as given in article PMC3412620 (PLoS ONE, 2012).

Key:
[1] = target: T1, human pyridoxal kinase (hPL kinase) (Homo sapiens, UniProt O00764); assay: percentage inhibition at […], spectrophotometric assay; assay type: biochemical
T1 construct: gene PDXK; wild-type hPL kinase
T1 sequence (O00764 1-312): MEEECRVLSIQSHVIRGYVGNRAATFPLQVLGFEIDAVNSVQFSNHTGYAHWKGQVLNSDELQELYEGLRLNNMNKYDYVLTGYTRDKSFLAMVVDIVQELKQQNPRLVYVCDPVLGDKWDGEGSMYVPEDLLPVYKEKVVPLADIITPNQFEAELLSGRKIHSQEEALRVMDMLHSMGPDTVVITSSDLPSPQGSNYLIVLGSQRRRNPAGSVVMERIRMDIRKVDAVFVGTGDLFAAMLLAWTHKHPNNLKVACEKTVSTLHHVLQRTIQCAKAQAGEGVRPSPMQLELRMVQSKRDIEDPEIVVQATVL

[2] = target: T1, human pyridoxal kinase (hPL kinase); assay: crystal structure ([…] Å), […] occupancy; density broken between ring and phosphate; assay type: binding
[3] = target: T1, human pyridoxal kinase (hPL kinase); assay: spectrophotometric kinetic assay (PL to PLP, […] nm); assay type: biochemical
[4] = target: T1, human pyridoxal kinase (hPL kinase); assay: crystal structure ([…] Å, ternary with ginkgotoxin); assay type: binding
[5] = substrate: Cc1ncc(CO)c(C=O)c1O; assay: spectrophotometric steady-state kinetics with purified enzyme (Km); assay type: biochemical, Homo sapiens; details: MgATP PL substrate site

Cn1c(=O)c2c(ncn2C)n(C)c1=O [caffeine]
inhibition at 100 µM [1]: 21%

COCc1c(COP(=O)(O)O)cnc(C)c1O [GIP, ginkgotoxin phosphate]
crystal structure (2.15 Å), 40% occupancy; density broken between ring and phosp [2]: We also observed what appears to be the phosphorylated product of ginkgotoxin bound at the PL sites

Cn1cnc2c1c(=O)[nH]c(=O)n2C [theobromine]
inhibition at 100 µM [1]: 22%

CCCn1c(=O)[nH]c(=O)c2[nH]cnc21 [enprofylline]
Ki [3]: 228 µM

Nc1ncnc2c1ncn2[C@@H]1O[C@H](COP(=O)(O)OP(=O)(O)OP(=O)(O)O)[C@@H](O)[C@H]1O [ATP]
crystal structure (2.15 Å, ternary with ginkgotoxin) [4]: We observed bound MgATP and ginkgotoxin (Fig. 4A–C) at both subunit active sites.

Nc1nnc(-c2cccc(Cl)c2Cl)c(N)n1 [lamotrigine]
Ki [3]: 56 µM

B1: human pyridoxal kinase (hPL kinase) (Homo sapiens) (protein)
chain: MEEECRVLSIQSHVIRGYVGNRAATFPLQVLGFEIDAVNSVQFSNHTGYAHWKGQVLNSDELQELYEGLRLNNMNKYDYVLTGYTRDKSFLAMVVDIVQELKQQNPRLVYVCDPVLGDKWDGEGSMYVPEDLLPVYKEKVVPLADIITPNQFEAELLSGRKIHSQEEALRVMDMLHSMGPDTVVITSSDLPSPQGSNYLIVLGSQRRRNPAGSVVMERIRMDIRKVDAVFVGTGDLFAAMLLAWTHKHPNNLKVACEKTVSTLHHVLQRTIQCAKAQAGEGVRPSPMQLELRMVQSKRDIEDPEIVVQATVL
notes: wild-type hPL kinase
Km [5]: 58 µM
